“Also recorded” adds a separate entry of the source.
Assays:
[1] = test system: WT and PS1 KO cells; assay: Intracellular protein degradation (pulse-chase, [3H]-leucine) in WT and PS1 KO blastocysts; assay type: cell-based, Murine; details: serum withdrawal, NH4Cl 20 mM, 3MA 10 mM
Procedure: (§1) Total protein degradation in cultured cells was measured by pulse-chase experiments (Auteri et al., 1983, J Cell Physiol 115, 167-174). Confluent cells were labeled with [^3H]-leucine (2 μCi/ml) for 48 hrs at 37° C. in order to preferentially label long-lived proteins. Following labeling, cells were extensively washed and maintained in complete medium (DMEM+10% fetal bovine serum), under which conditions autophagy is suppressed, or in serum-deprived medium, where autophagy is induced. Under both conditions, after washing the cells, the medium was supplemented with unlabeled 2.8 mM leucine to prevent [^3H]-leucine reincorporation into newly synthesized proteins. Aliquots of the medium taken at different time-points were precipitated with 10% TCA, filtered using a 0.22 μm pore membrane and radioactivity in the flow-through was measured. Proteolysis is expressed as the percentage of the initial acid-precipitable radioactivity (protein) transformed to acid-soluble radioactivity (amino acids and small peptides) over time. To inhibit autophagy in this system, 20 mM NH4Cl or 10 mM 3MA was added immediately after the labeling period and maintained at that concentration throughout the chase. […] Protein synthesis was determined as the incorporation of [^3H]leucine into acid-insoluble material in the presence of an excess (2.8 mM) unlabeled leucine in the medium. […]

[2] = test system: PS1KO blastocysts; assay: Lysosomal pH measurement with Dextran conjugated Lysosensor Yellow/Blue in PS1KO cells; assay type: cell-based, Murine; details: for effect of pretreatment on the action of isoproterenol on lysosomal pH / effect on elevated lysosomal pH in PS1KO cells: PS1KO cells; for effect of pretreatment on the action of isoproterenol on lysosomal pH: pretreatment before isoproterenol, FIG. 10F; for effect on elevated lysosomal pH in PS1KO cells: FIG. 10A/G; for lysosomal pH after treatment relative to WT lysosomal pH (ANOVA, Dunnet's post-test): PS1KO blastocysts, FIG. 11
Procedure: For results presented in Example 1, quantification of lysosomal pH was determined using Dextran conjugated Lysosensor Yellow/Blue DND-160 (Invitrogen) as follows. Wild Type and PS1KO blastocysts were grown in High Glucose DMEM+15% FBS with antibiotics to ˜90% confluency. Cells were then trypsinized, harvested (1×10^6 cells/ml) and loaded with 1 mg/ml of Lysosensor-dextran for 1 hour at 37° C. with 5% CO2. The cells were then washed 3× in HBSS and aliquoted at […] into a black 96-well microplate. pH calibration was performed according to the protocol established by Diwu et al (Diwu et al., (1999). Chem Biol 6, 411-418). Briefly, wild type and PS1KO blastocysts were treated with 10 μM monensin and 10 uM nigericin in MES buffer (5 mM NaCl, 115 mM KCL, 1.3 mM MgSO4, 25 mM MES), with the pH adjusted to a range from 3.5-7.0. The samples were read in a Wallac Victor 2 fluorimeter (Perkin Elmer) with excitation at 355 nm. The ratio of emission 440/535 nm was then calculated for each sample. The pH values were determined from the linear standard curve generated via the pH calibration samples.
In a more particular embodiment, quantification of lysosomal pH is determined using Dextran conjugated Lysosensor Yellow/Blue (Invitrogen) as follows. 3000 Wild Type and PS1KO blastocysts were seeded in multiple wells of black, clear bottom tissue culture treated 96 well dish and grown in High Glucose DMEM+15% FBS with antibiotics to ˜90% confluency (˜24 hours). 2 ul of 0.5 mg/ml lysosensor-dextran (1:100 dilution of a 5 mg/ml stock) was added and incubated for 1 hour at 37° C. with 5% CO2. The cells were then washed 3× in HBSS. See also methods and results set forth herein below in Example 2. This modified protocol represents an optimized protocol for the purposes set forth herein.
(§2) Quantification of lysosomal pH was determined using Dextran conjugated Lysosensor Yellow/Blue (Invitrogen). 3000 Wild Type and PS1KO blastocysts were seeded in multiple wells of black, clear bottom tissue culture treated 96 well dish and grown in High Glucose DMEM+15% FBS with antibiotics to ˜90% confluency (˜24 hours). 2 ul of 0.5 mg/ml lysosensor-dextran (1:100 dilution of a 5 mg/ml stock) was added and incubated for 1 hour at 37° C. with 5% CO2. The cells were then washed 3× in HBSS.
Performed according to the protocol established by Diwu et al (supra). Briefly, wild type and PS1KO blastocysts were treated with 10 uM monensin and 10 uM nigericin in MES buffer (5 mM NaCl, 115 mM KCL, 1.3 mM MgSO4, 25 mM MES), with the pH adjusted to a range from 3.5-7.0 for 7-10 min prior to lysosensor addition (the additional hour in the buffer seems to have no effect), these cells are not washed in HBSS since permeabilization with ionophores makes them susceptible to detachment.
(§3) The samples were read in a Wallac Victor 2 fluorimeter (Perkin Elmer) with excitation at 355 nm. The ratio of emission 440 nm/535 nm was then calculated for each sample. pH values were determined from the linear std curve generated via the pH calibration samples.

[3] = test system: Cat B; assay: MR-Cat B signal in WT cells; assay type: cell-based, Murine; details: NH4Cl treated WT cells
Procedure: (§4) Immunocytochemistry was performed as previously described (Yu et al., 2005). Secondary antibodies used were from Invitrogen: goat anti-mouse/rabbit/rat Alexa Fluor 488 and goat anti-mouse/rabbit/rat Alexa Fluor 568. Cells were imaged using a plan-Apochromat 40× or 100×/1.4 oil DIC objective lens on the laser scanning confocal microscope, LSM 510 META, with LSM software v3.5 (Carl Zeiss MicroImaging Inc). Images were analysed using ImageJ program (NIH). Organelles with low internal pH were labeled by LysoTracker DND-99 dye (Invitrogen) at the final 100 nM for 30 min. Following 4% PFA fixation, cells were further counter stained with Cat D, LMAP1, or LC3 antibody for 4 hrs then visualized with Alexa Fluor 488 conjugated secondary antibody. Active Cat D was labeled by adding Bodipy-FL-pepstatin A directly to the medium at a final concentration of 1 μg/ml for 1 hr. Following 4% PFA fixation, cells were counter stained with Cat D antibody for 4 hrs and visualized with Alexa Fluor 568 conjugated secondary antibody. […] Cells were incubated for 30 min with MR-Cathepsin B prior to mounting them under the confocal microscope. […]
(§5) Active Cat D was labeled by adding Bodipy-FL-pepstatin A directly to the medium at a final concentration of 1 mg/ml for 1 hr. […] Cat B staining with MagicRed-Cathepsin B was also measured fluorometrically with a Wallac Victor 2 fluorometer.

[4] = test system: PS1-FAD human fibroblasts; assay: Intracellular protein degradation (pulse-chase) in control and PS1-FAD fibroblasts; assay type: cell-based; details: serum withdrawal; NH4Cl treatment
Procedure: as §1

[5] = molecular target: T1, Cat D (Mus musculus, UniProt P18242); assay: Active Cat D labeling with Bodipy-FL-pepstatin A in WT cells; assay type: cell-based, Murine; details: NH4Cl
T1 construct: endogenous in cells; host or cells: WT murine blastocyst cells (BD6)
Procedure: Immunocytochemistry was performed as previously described (Yu et al., 2005). Secondary antibodies used were from Invitrogen: goat anti-mouse/rabbit/rat Alexa Fluor 488 and goat anti-mouse/rabbit/rat Alexa Fluor 568. Cells were imaged using a plan-Apochromat 40× or 100×/1.4 oil DIC objective lens on the laser scanning confocal microscope, LSM 510 META, with LSM software v3.5 (Carl Zeiss MicroImaging Inc). Images were analysed using ImageJ program (NIH). Organelles with low internal pH were labeled by LysoTracker DND-99 dye (Invitrogen) at the final 100 nM for 30 min. Following 4% PFA fixation, cells were further counter stained with Cat D, LMAP1, or LC3 antibody for 4 hrs then visualized with Alexa Fluor 488 conjugated secondary antibody. Active Cat D was labeled by adding Bodipy-FL-pepstatin A directly to the medium at a final concentration of 1 μg/ml for 1 hr. Following 4% PFA fixation, cells were counter stained with Cat D antibody for 4 hrs and visualized with Alexa Fluor 568 conjugated secondary antibody. […] Cells were incubated for 30 min with MR-Cathepsin B prior to mounting them under the confocal microscope. To block v-ATPase proton pump activity, ammonium chloride (NH4Cl) was added directly to the medium at a final concentration of 20 mM for 6 hrs prior to LysoTracker addition.

[6] = test system: WT blastocysts; assay: Validation of lysosomal pH measurement in WT blastocysts; assay type: cell-based, Murine; details: FIG. 9A
Procedure: as §2
Performed according to the protocol established by Diwu et al (supra). […]
as §3
At the outset, the validity of the method described herein to measure lysosomal pH is confirmed. See, for example, FIG. 9A-D. More particularly, to assess the validity of the method of quantifying lysosomal pH, WT blastocysts were treated with chloroquine (CQ), which is known to elevate lysosomal pH. […]

[7] = in vivo; cited from earlier work
[8] = test system: LC3-II; assay: LC3-II levels by immunoblot / LC3 puncta in WT and PS1 KO cells; assay type: cell-based, Murine; details: 6 hrs
Procedure: (§6) Immunoblotting was performed as previously described (Yu et al., 2005). Briefly, cells used for Western blot analysis were lysed in buffer containing 50 mM Tris (pH=7.4), 150 mM NaCl, 1 mM EDTA, 1 mM EGTA, 1% Triton X-100 and 0.5% Tween-20 with protease and phosphatase inhibitors. Following electrophoresis on 4-20% gradient gel (Invitrogen), proteins were transferred onto 0.45 μm PVDF membranes (Millipore) and the membrane was incubated overnight in primary antibody then incubated with HRP conjugated secondary antibody. The blot was developed by ECL-kit (GE Healthcare). To assess v-ATPase V0a subunit glycosylation, lysate from WT and PS1KO cells were either treated for 24 hrs at 37° C. with PNGase F or O-glycanase using an enzymatic deglycosylation kit according to the manufacturer's instructions (PROzyme) or with Endo H (New England Biolabs) for 24 hrs at 37° C. Total glycoproteins were isolated using Glycoprotein Isolation Kit, ConA according to the manufacturer's instructions (Thermo Scientific).
Immunocytochemistry was performed as previously described (Yu et al., 2005). Secondary antibodies used were from Invitrogen: goat anti-mouse/rabbit/rat Alexa Fluor 488 and goat anti-mouse/rabbit/rat Alexa Fluor 568. […] Images were analysed using ImageJ program (NIH). […]

[9] = test system: Cat B; assay: Cat B activity by MagicRed-Cathepsin B (MR-Cat B) in PS1KO cells; assay type: cell-based, Murine; details: PS1 KO cells
Procedure: as §4, §5

[10] = test system: v-ATPase V0a1 subunit; assay: v-ATPase V0a1 glycosylation state in WT cells (immunoblot); assay type: cell-based, Murine; details: 100-kDa with vs 120-kDa without tunicamycin
Procedure: as §6

T1 sequence (P18242 65-410): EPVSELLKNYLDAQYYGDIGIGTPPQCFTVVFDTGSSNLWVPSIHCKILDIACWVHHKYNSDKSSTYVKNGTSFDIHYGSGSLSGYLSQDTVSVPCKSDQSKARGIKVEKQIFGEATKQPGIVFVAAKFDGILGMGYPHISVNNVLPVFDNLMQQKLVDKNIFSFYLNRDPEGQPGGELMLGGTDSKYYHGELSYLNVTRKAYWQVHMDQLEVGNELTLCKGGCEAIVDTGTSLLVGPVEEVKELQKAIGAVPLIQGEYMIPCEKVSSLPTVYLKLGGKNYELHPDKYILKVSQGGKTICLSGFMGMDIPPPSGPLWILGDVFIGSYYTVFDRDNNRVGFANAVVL
Sequence of v-ATPase V0a1 subunit (Q9Z1G4 whole entry): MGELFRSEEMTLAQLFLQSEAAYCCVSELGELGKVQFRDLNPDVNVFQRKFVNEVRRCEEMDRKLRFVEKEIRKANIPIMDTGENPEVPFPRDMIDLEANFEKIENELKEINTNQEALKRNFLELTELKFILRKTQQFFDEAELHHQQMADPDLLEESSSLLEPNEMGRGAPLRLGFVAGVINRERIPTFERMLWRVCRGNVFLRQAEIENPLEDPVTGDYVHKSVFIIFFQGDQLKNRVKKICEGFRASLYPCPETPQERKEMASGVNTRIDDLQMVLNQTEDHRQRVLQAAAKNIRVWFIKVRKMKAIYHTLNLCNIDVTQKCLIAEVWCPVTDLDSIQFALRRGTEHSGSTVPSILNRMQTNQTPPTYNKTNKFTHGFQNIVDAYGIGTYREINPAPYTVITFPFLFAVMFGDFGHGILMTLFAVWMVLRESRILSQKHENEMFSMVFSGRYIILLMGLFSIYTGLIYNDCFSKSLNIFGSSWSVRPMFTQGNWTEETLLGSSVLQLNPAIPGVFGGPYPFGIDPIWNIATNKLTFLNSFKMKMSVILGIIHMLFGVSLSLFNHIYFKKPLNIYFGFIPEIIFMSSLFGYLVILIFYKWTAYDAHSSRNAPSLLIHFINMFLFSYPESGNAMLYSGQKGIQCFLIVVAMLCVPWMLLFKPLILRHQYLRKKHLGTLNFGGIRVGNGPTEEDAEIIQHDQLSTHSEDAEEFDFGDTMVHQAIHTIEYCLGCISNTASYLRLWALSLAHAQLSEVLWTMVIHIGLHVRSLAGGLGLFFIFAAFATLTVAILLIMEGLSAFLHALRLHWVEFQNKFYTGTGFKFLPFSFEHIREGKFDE

Cn1cnc(N)c2ncnc1-2 [3-methyladenine]
increase in proteolysis after serum removal [1]: only the increased proteolysis in WT cells was blocked

O=S(=O)(NCCNC/C=C/c1ccc(Br)cc1)c1cccc2cnccc12 [H89]
effect of pretreatment on the action of isoproterenol on lysosomal pH [2]: prevent the action of isoproterenol

Cl.N [NH4Cl, ammonium chloride]
MR-Cat B signal [3]: minimal | increase in proteolysis after serum removal [1]: entirely blocked the increase of proteolysis in both cell types | difference in proteolytic rates between control and PS1-FAD fibroblasts [4]: eliminated the difference in proteolytic rates between the two cell groups | Bodipy-FL-pepstatin A labeling of Cat D-positive compartments (active Cat D) [5]: nearly completely abolished; also recorded: minimal colocalization

C=CCc1ccccc1OCC(O)CNC(C)C (stereo not shown) [alprenolol]
effect on elevated lysosomal pH in PS1KO cells [2]: did not affect lysosomal pH; also recorded: remains unchanged

CCN(CC)CCCC(C)Nc1ccnc2cc(Cl)ccc12 (stereo not shown) [chloroquine]
lysosomal pH of WT blastocysts [6]: significantly elevated WT lysosomal pH

CC(C)(C)NCC(O)c1cc(Cl)c(N)c(Cl)c1 (stereo not shown) [clenbuterol]
consequences on lysosomal pH and autophagy in PS1-deleted cells ([2]; PS1-deleted cells, clinically relevant concentrations): desired consequences on lysosomal pH and autophagy | lysosomal pH after treatment relative to WT lysosomal pH (ANOVA, Dunnet's post-test) [2]: did not possess significant difference from WT lysosomal pH; also recorded: did not differ significantly from that of WT lysosomal pH | effect on elevated lysosomal pH in PS1KO cells [2]: normal levels or even hyperacidic levels; also recorded: restored to WT levels | crossing of the blood brain barrier (BBB) [7]: cross the blood brain barrier

COc1cc(/C=C/C(=O)CC(=O)/C=C/c2ccc(O)c(OC)c2)ccc1O [curcumin]
lysosomal pH after treatment relative to WT lysosomal pH (ANOVA, Dunnet's post-test) [2]: reduces lysosomal pH in excess of WT acidity

CC(=O)N[C@@H](CC(C)C)C(=O)N[C@@H](CC(C)C)C(=O)N[C@H](C=O)CCCNC(=N)N [leupeptin]
LC3 levels in PS1 KO cells ([8]; PS1 KO cells, 0.3 mM): did not increase LC3 levels | LC3-II levels in WT cells ([8]; WT cells, rapamycin acute induction, leupeptin 0.3 mM): significantly elevated LC3-II levels and LC3-positive puncta

CNC[C@H](O)c1cccc(O)c1 [phenylepherine]
effect on elevated lysosomal pH in PS1KO cells [2]: did not affect lysosomal pH; also recorded: remains unchanged

CC(C)NCC(O)COc1cccc2ccccc12 (stereo not shown) [propranol]
effect of pretreatment on the action of isoproterenol on lysosomal pH [2]: prevent the action of isoproterenol

Oc1ccc(C=Cc2cc(O)cc(O)c2)cc1 [resveratrol]
active Cat B in PS1 KO cells [9]: partially restoring active Cat B

COc1ccc(C2CNC(=O)C2)cc1OC1CCCC1 (stereo not shown) [rolipram]
lysosomal pH after treatment relative to WT lysosomal pH (ANOVA, Dunnet's post-test) [2]: did not differ significantly from that of WT lysosomal pH | lysosomal pH after treatment relative to WT lysosomal pH (ANOVA, Dunnet's post-test) ([2]; listed as Rolipram): did not possess significant difference from WT lysosomal pH | effect on elevated lysosomal pH in PS1KO cells [2]: decreased lysosomal pH

tunicamycin
gel mobility of v-ATPase V0a1 subunit [10]: increase in mobility

Source: US9265735B2, “Methods for screening to identify therapeutic agents for Alzheimer's disease and use thereof” (New York University, priority 2010, dated 2016)
